In US12692261B2, “Substituted heterocyclic compounds and therapeutic uses thereof” (Bayer Aktiengesellschaft, priority 2020, dated 2026):
Like-named read-outs stand apart in the source and are kept apart here.

What was measured:
[1] = biological target: T1, full-length human CSNK1A1 (Homo sapiens, UniProt P48729); assay: CSNK1A1 Assay 2 (ADP-Glo, 1 μM ATP, substrate biotin-Ahx-KRRRAL-pS-VASLPGL); type: biochemical; details: Table 3, read-out: CSNK1A1 Assay 2 IC50 [mol/l] (median)
T1 construct: N-terminal Glutathion-S-Transferase (GST) and full-length human CSNK1A1; purchased Life Technologies PV4174; host or cells: baculovirus infected insect cells
In short: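 GST-tagged full-length human CSNK1A1 from baculovirus-infected insect cells (about 0.0375 ng/μL), preincubated 15 min at 22 °C with compound in HEPES pH 7.5 buffer, with 1 μM ATP and biotin-Ahx-KRRRAL-pS-VASLPGL substrate. ADP formed read by ADP-Glo luminescence.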

[2] = biological target: T2, wild-type Epidermal Growth Factor Receptor (EGFR) (Homo sapiens, UniProt P00533); assay: WT-EGFR Kinase Assay (TR-FRET, 2 mM ATP); type: biochemical
T2 construct: a fragment of human EGFR (amino acids R669 to A1210); made in house; host or cells: Sf9 insect cells
In short: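 GST-fused human EGFR fragment (R669-A1210) from Sf9 cells, typically 7.6 pg/μL, pre-incubated with compound 15 min at 22° C in Hepes pH 7.0 buffer with MgCl2, DTT and vanadate; biotinylated peptide substrate. After EDTA stop, phosphopeptide detected by TR-FRET (anti-phosphotyrosine Tb-cryptate/streptavidin-XL665), 665/620 nm emission ratio.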

[3] = EGFR Wildtyp 2 mM ATP IC50 [mol/l] (median), Table 4
[4] = read-out: EGFR Wildtyp 2 mM ATP IC50 [mol/l] (median), Table 4

T1 sequence (P48729 whole entry): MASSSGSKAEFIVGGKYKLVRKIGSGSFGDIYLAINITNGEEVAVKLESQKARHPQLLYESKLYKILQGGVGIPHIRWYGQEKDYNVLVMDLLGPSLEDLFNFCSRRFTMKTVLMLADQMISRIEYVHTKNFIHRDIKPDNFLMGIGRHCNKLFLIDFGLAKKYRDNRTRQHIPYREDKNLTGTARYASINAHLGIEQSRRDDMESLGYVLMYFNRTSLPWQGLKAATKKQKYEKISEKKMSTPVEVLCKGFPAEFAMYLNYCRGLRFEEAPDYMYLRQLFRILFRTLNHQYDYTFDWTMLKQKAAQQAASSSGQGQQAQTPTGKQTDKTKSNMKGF
T2 sequence (P00533 669-1210): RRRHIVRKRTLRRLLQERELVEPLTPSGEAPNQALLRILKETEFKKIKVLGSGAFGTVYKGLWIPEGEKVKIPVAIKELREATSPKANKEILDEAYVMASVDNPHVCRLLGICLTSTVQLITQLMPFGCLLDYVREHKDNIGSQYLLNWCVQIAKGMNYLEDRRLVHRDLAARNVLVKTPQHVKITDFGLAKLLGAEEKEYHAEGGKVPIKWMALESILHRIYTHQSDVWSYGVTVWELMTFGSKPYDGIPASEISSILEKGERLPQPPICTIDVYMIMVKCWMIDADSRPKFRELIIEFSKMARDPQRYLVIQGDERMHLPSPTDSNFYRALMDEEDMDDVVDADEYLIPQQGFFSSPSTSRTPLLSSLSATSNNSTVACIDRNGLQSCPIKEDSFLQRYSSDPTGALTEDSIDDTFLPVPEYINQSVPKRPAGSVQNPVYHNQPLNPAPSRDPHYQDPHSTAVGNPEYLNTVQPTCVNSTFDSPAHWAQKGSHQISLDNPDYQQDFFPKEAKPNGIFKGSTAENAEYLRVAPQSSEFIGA

O=C(Nc1cc(-c2[nH]c3c(O[C@H]4CCOC4)ncnc3c2-c2ccccn2)ccn1)C(CC(F)F)c1ccc(F)cc1 (mixture of isomers) [Example 72, (2RS)-4,4-difluoro-2-(4-fluorophenyl)-N-{4-[4-{[(3S)-oxolan-3-yl]oxy}-7-(pyridin-2-yl)-5H-pyrrolo[3,2-d]pyrimidin-6-yl]pyridin-2-yl}butanamide]
IC50 [1]: 7.1 nM
IC50 [2, 3]: > 20000 nM

Cc1cnc2c(-c3ccccn3)c(-c3ccnc(NC(=O)C(CC(F)F)c4ccc(F)cc4)c3)[nH]c2n1 (single isomer, unassigned; (+)) [Example 86, (+)-4,4-difluoro-2-(4-fluorophenyl)-N-{4-[3-methyl-7-(pyridin-2-yl)-5H-pyrrolo[2,3-b]pyrazin-6-yl]pyridin-2-yl}butanamide]
IC50 [1]: 2.89 nM
IC50 [2, 3]: > 20000 nM

O=C(Nc1cc(-c2[nH]c3c(OC[C@@H]4COCCO4)cc(F)nc3c2-c2ccccn2)ccn1)C(CC(F)F)c1ccc(F)cc1 (single isomer, unassigned) [Example 58, (2R or S)—N-{4-[7-{[(2S)-1,4-dioxan-2-yl]methoxy}-5-fluoro-3-(pyridin-2-yl)-1H-pyrrolo[3,2-b]pyridin-2-yl]pyridin-2-yl}-4,4-difluoro-2-(4-fluorophenyl)butanamide]
IC50 [1]: 3.56 nM
IC50 [2, 3]: > 20000 nM

O=C(Nc1cc(-c2[nH]c3ncc(F)nc3c2-c2ccccn2)ccn1)C(CC(F)F)c1ccc(F)cc1 (racemic) [Example 62, (2RS)-4,4-difluoro-2-(4-fluorophenyl)-N-{4-[2-fluoro-7-(pyridin-2-yl)-5H-pyrrolo[2,3-b]pyrazin-6-yl]pyridin-2-yl}butanamide]
IC50 [1]: 3.92 nM
IC50 [2, 3]: > 20000 nM

O=C(Nc1cc(-c2[nH]c3ccnnc3c2-c2ccccn2)ccn1)C(CC(F)F)c1ccc(F)cc1 (single isomer, unassigned) [Example 66, (2R or 2S)-4,4-difluoro-2-(4-fluorophenyl)-N-{4-[7-(pyridin-2-yl)-5H-pyrrolo[3,2-c]pyridazin-6-yl]pyridin-2-yl}butanamide]
IC50 [1]: 2.43 nM
IC50 [2, 3]: > 20000 nM

COc1cnc2c(-c3ccccn3)c(-c3ccnc(NC(=O)C(CC(F)F)c4ccc(F)cc4)c3)[nH]c2c1 (single isomer, unassigned) [Example 83, 4,4-difluoro-2-(4-fluorophenyl)-N-{4-[6-methoxy-3-(pyridin-2-yl)-1H-pyrrolo[3,2-b]pyridin-2-yl]pyridin-2-yl}butanamide]
IC50 [1]: 9.86 nM
IC50 [2, 4]: > 20000 nM

O=C(Nc1cc(-c2[nH]c3ncc(F)nc3c2-c2ccccn2)ccn1)C(CC(F)F)c1ccc(F)cc1 (single isomer, unassigned) [Example 63, (2R or S)-4,4-difluoro-2-(4-fluorophenyl)-N-{4-[2-fluoro-7-(pyridin-2-yl)-5H-pyrrolo[2,3-b]pyrazin-6-yl]pyridin-2-yl}butanamide]
IC50 [1]: 1.48 nM
IC50 [2, 3]: > 20000 nM

O=C(Nc1cc(-c2[nH]c3ccnnc3c2-c2ccccn2)ccn1)C(CC(F)F)c1ccc(F)cc1 (single isomer, unassigned) [Example 67, (2R or S)-4,4-difluoro-2-(4-fluorophenyl)-N-{4-[7-(pyridin-2-yl)-5H-pyrrolo[3,2-c]pyridazin-6-yl]pyridin-2-yl}butanamide]
IC50 [1]: 22 nM
IC50 [2, 4]: > 20000 nM

O=C(Nc1cc(-c2[nH]c3cc(F)cnc3c2-c2ccccn2)ccn1)C(CO)c1ccc(F)cc1 (racemic) [Example 71, (2RS)—N-(4-(6-fluoro-3-(pyridin-2-yl)-1H-pyrrolo[3,2-b]pyridin-2-yl)pyridin-2-yl)-2-(4-fluorophenyl)-3-hydroxypropanamide]
IC50 [1]: 8.21 nM
IC50 [2, 3]: > 20000 nM

O=C(Nc1cc(-c2[nH]c3c(O[C@H]4CCOC4)ncnc3c2-c2ccccn2)ccn1)C(CC(F)F)c1ccc(F)cc1 (single isomer, unassigned) [Example 73, (2R or S)-4,4-difluoro-2-(4-fluorophenyl)-N-{4-[4-{[(3S)-oxolan-3-yl]oxy}-7-(pyridin-2-yl)-5H-pyrrolo[3,2-d]pyrimidin-6-yl]pyridin-2-yl}butanamide]
IC50 [1]: 4.16 nM
IC50 [2, 3]: > 20000 nM

O=C(Nc1cc(-c2[nH]c3c(OCC4CCCO4)cc(F)nc3c2-c2ccccn2)ccn1)C(CC(F)F)c1ccc(F)cc1 (racemic) [Example 61, (2RS)-4,4-difluoro-N-{4-[5-fluoro-7-{[(2RS)-oxolan-2-yl]methoxy}-3-(pyridin-2-yl)-1H-pyrrolo[3,2-b]pyridin-2-yl]pyridin-2-yl}-2-(4-fluorophenyl)butanamide]
IC50 [1]: 11.1 nM
IC50 [2, 3]: > 20000 nM

O=C(Nc1cc(-c2[nH]c3c(N4CCNCC4)ccnc3c2-c2ccccn2)ccn1)C(CC(F)F)c1ccc(F)cc1 (racemic) [Example 92, (2RS)-4,4-difluoro-2-(4-fluorophenyl)-N-{4-[7-(piperazin-1-yl)-3-(pyridin-2-yl)-1H-pyrrolo[3,2-b]pyridin-2-yl]pyridin-2-yl}butanamide]
IC50 [1]: 2.35 nM
IC50 [2, 3]: > 20000 nM

O=C(Nc1cc(-c2[nH]c3c(OC[C@H]4COCCO4)cc(F)nc3c2-c2ccccn2)ccn1)C(CC(F)F)c1ccc(F)cc1 (single isomer, unassigned) [Example 52, (2R or S)—N-{4-[7-{[(2R)-1,4-dioxan-2-yl]methoxy}-5-fluoro-3-(pyridin-2-yl)-1H-pyrrolo[3,2-b]pyridin-2-yl]pyridin-2-yl}-4,4-difluoro-2-(4-fluorophenyl)butanamide]
IC50 [1]: 17.2 nM
IC50 [2, 4]: > 20000 nM

O=C(Nc1cc(-c2[nH]c3nc(F)cnc3c2-c2ccccn2)ccn1)C(CC(F)F)c1ccc(F)cc1 (racemic) [Example 60, (2RS)-4,4-difluoro-2-(4-fluorophenyl)-N-{4-[3-fluoro-7-(pyridin-2-yl)-5H-pyrrolo[2,3-b]pyrazin-6-yl]pyridin-2-yl}butanamide]
IC50 [1]: 5.81 nM
IC50 [2, 3]: > 20000 nM

O=C(Nc1cc(-c2[nH]c3c(OC[C@H]4COCCO4)cc(F)nc3c2-c2ccccn2)ccn1)C(CC(F)F)c1ccc(F)cc1 (single isomer, unassigned) [Example 51, (2R or S)—N-{4-[7-{[(2R)-1,4-dioxan-2-yl]methoxy}-5-fluoro-3-(pyridin-2-yl)-1H-pyrrolo[3,2-b]pyridin-2-yl]pyridin-2-yl}-4,4-difluoro-2-(4-fluorophenyl)butanamide]
IC50 [1]: 4.65 nM
IC50 [2, 3]: > 20000 nM

O=C(Nc1cc(-c2[nH]c3ccnnc3c2-c2ccccn2)ccn1)C(CC(F)F)c1ccc(F)cc1 (racemic) [Example 65, (2RS)-4,4-difluoro-2-(4-fluorophenyl)-N-{4-[7-(pyridin-2-yl)-5H-pyrrolo[3,2-c]pyridazin-6-yl]pyridin-2-yl}butanamide]
IC50 [1]: 2.75 nM
IC50 [2, 3]: > 20000 nM

O=C(Nc1cc(-c2[nH]c3ccc(Cl)nc3c2-c2ccccn2)ccn1)C(CC(F)F)c1ccc(F)cc1 (racemic) [Example 70, (2RS)—N-{4-[5-chloro-3-(pyridin-2-yl)-1H-pyrrolo[3,2-b]pyridin-2-yl]pyridin-2-yl}-4,4-difluoro-2-(4-fluorophenyl)butanamide]
IC50 [1]: 5.43 nM
IC50 [2, 3]: > 20000 nM

O=C(Nc1cc(-c2[nH]c3c(N4CCOCC4)cc(F)nc3c2-c2ccccn2)ccn1)C(CC(F)F)c1ccc(F)cc1 (racemic) [Example 69, (2RS)-4,4-difluoro-N-{4-[5-fluoro-7-(morpholin-4-yl)-3-(pyridin-2-yl)-1H-pyrrolo[3,2-b]pyridin-2-yl]pyridin-2-yl}-2-(4-fluorophenyl)butanamide]
IC50 [1]: 10.4 nM
IC50 [2, 3]: > 20000 nM

COc1cnc2c(-c3ccccn3)c(-c3ccnc(NC(=O)C(CC(F)F)c4ccc(F)cc4)c3)[nH]c2c1 (centres unmarked) [Example 81, 4,4-difluoro-2-(4-fluorophenyl)-N-{4-[6-methoxy-3-(pyridin-2-yl)-1H-pyrrolo[3,2-b]pyridin-2-yl]pyridin-2-yl}butanamide]
IC50 [1]: 4.02 nM
IC50 [2, 3]: > 20000 nM

O=C(Nc1cc(-c2[nH]c3cc(Cl)cnc3c2-c2ccccn2)ccn1)C(CC(F)F)c1ccc(F)cc1 (single isomer, unassigned) [Example 88, (+)—N-{4-[6-chloro-3-(pyridin-2-yl)-1H-pyrrolo[3,2-b]pyridin-2-yl]pyridin-2-yl}-4,4-difluoro-2-(4-fluorophenyl)butanamide]
IC50 [1]: 4.72 nM
IC50 [2, 3]: > 20000 nM

O=C(Nc1cc(-c2[nH]c3c(OC[C@@H]4COCCO4)cc(F)nc3c2-c2ccccn2)ccn1)C(CC(F)F)c1ccc(F)cc1 (mixture of isomers) [Example 57, (2RS)—N-(4-{7-[(2S)-1,4-dioxan-2-ylmethoxy]-5-fluoro-3-(pyridin-2-yl)-1H-pyrrolo[3,2-b]pyridin-2-yl}pyridin-2-yl)-4,4-difluoro-2-(4-fluorophenyl)butanamide]
IC50 [1]: 7.89 nM
IC50 [2, 3]: > 20000 nM

O=C(Nc1cc(-c2[nH]c3c(OC[C@@H]4COCCO4)cc(F)nc3c2-c2ccccn2)ccn1)C(CC(F)F)c1ccc(F)cc1 (single isomer, unassigned) [Example 59, (2R or S)—N-{4-[7-{[(2S)-1,4-dioxan-2-yl]methoxy}-5-fluoro-3-(pyridin-2-yl)-1H-pyrrolo[3,2-b]pyridin-2-yl]pyridin-2-yl}-4,4-difluoro-2-(4-fluorophenyl)butanamide]
IC50 [1]: 12.7 nM
IC50 [2, 4]: > 20000 nM
